Like-named read-outs stand apart in the source and are kept apart here. Marks after values point to notes of the source that are not given here.
Key:
A375 cells = test: Evaluation of cell cycle arrest (propidium iodide, flow cytometry); format: cell-based, human; settings: 24 hr
Experimental: A375 cells were plated in 96-well microplates at 10,000 cells/200 μl/well. […] After another 24 hr, cells were trypsinized, fixed in 200 μl Prefer (Anatech, Battle Creek, Mich.), and stored at 4° C. overnight. Cells were then rinsed in PBS, permeabilized and stained in 0.1% Triton X-100, 200 μg/ml DNase-free RNase, and […] propidium iodide (Molecular Probes, Sunnyvale, Calif.), and analyzed on the Guava PCA-96 (Guava Technologies, Foster City, Calif.). Data were analyzed using ModFit LT (version 3.0, Verity, Topsham, Me.).

[1] = Dynamic vapor sorption/desorption (DVS); format: physicochemical; settings: Form A; 5% to 95% relative humidity
Experimental: Moisture sorption/desorption data were collected on a VTI SGA-100 Vapor Sorption Analyzer. Sorption and desorption data were collected over a range of 5% to 95% relative humidity (RH) at 10% RH intervals under a nitrogen purge. Samples were not dried prior to analysis. Equilibrium criteria used for analysis were less than 0.0100% weight change in 5 minutes, with a maximum equilibration time of 3 hours if the weight criterion was not met. Data were not corrected for the initial moisture content of the samples. Sodium chloride and polyvinypyrrolidine were used as calibration standards.

MDA pERK = MDA pERK ELISA; format: cell-based
[2] = system: human A375 melanoma xenografts
[3] = system: COLO 205 human colon carcinoma xenografts; test: Activity against subcutaneous COLO 205 xenografts (Example 118)
Experimental: Dosing solutions of Compound A were prepared fresh daily by dissolving the required amount of compound in 100% Cremophor EL, and then diluting ten-fold with normal saline. Final dosing solution concentrations were 2.5, 5, 10, or 20 mg/mL, in order to provide respective doses of 25, 50, 100 or 200 mg/kg in a dosing volume of 10 mL/kg. Paclitaxel (Natural Pharmaceuticals, Inc.) was prepared fresh on each day of dosing in a vehicle consisting of 5% ethanol and 5% Cremophor EL in 90% D5W (5% EC vehicle).
Group 1 received the formulation vehicle (10% Cremophor EL in saline), and served as the tumor growth control group. Group 2 received the reference drug paclitaxel administered on its optimal schedule in nude mice (30 mg/kg i.v. qod×5). […] All doses were scaled to the weight of the animal (0.2 mL per 20 grams body weight).
Tumors were measured twice each week using calipers. […] Therefore endpoint tumor size of 800 mm^3 was used for analysis of tumor growth delay (TGD).
[formula] where b is the intercept and m is the slope of the line obtained by linear regression of a log-transformed tumor growth data set.

Colo205 tumor cells = test: ED50 in Colo205 xenografts (Example 94D); format: in vivo, nu/nu mice; settings: Paclitaxel 30 mg/kg IV QODx5, Colo205 xenografts
Description: Male nu/nu mice were implanted with Colo205 tumor cells. After 10 days animals were randomized by tumor size (range 126-256 mm^3) and treated with paclitaxel (IV, QODx5), vehicle or Compound A (PO, QDx14).

[4] = system: Complete Freund's Adjuvant induced arthritis; test: Rat adjuvant arthritis inflammation assay; format: in vivo, rats; settings: 10 mg/kg subcutaneous on days 1 and 4
Experimental: In the rat adjuvant induced arthritis model, Complete Freund's Adjuvant (CFA) is injected into the right hind paw of rats to induce pathologies similar to rheumatoid arthritis in humans. Compound A was administered orally for 5 consecutive days at 2, 6, and 20 mg/kg. Dexamethasone at 5 m g/kg was also administered orally for 5 days. Enbrel at 10 mg/kg was administered by subcutaneous injection on days 1 and 4. CFA was injected into the right hind paw one hour after the first dose on day 1. […] Polyarthritis was scored as the presence of swelling in front paws, tail, nose or ear.

[5] = Group 2: Paclitaxel 30 mg/kg iv qod×5
[6] = Group 2: Paclitaxel 30 mg/kg iv qod×5, n=9
[7] = Group 2, paclitaxel 30 mg/kg iv qod × 14 per the 39th table (qod×5), n=9

For COc1cc(F)c(F)c(Nc2ccc(I)cc2F)c1NS(=O)(=O)C1(C[C@H](O)CO)CC1 [listing 1 of 2 here], the “Phase % G1” value (A375 cells; 37 nM) was 74.3%, the “Phase % G2” value (A375 cells; 37 nM) was 7.0% and the “Phase % S” value (A375 cells; 37 nM) was 18.7%. For the same molecule, the “Phase % G1” value (A375 cells; 111 nM) was 84.7%, the “Phase % G2” value (A375 cells; 111 nM) was 3.5% and the “Phase % S” value (A375 cells; 111 nM) was 11.8%.
For COc1cc(F)c(F)c(Nc2ccc(I)cc2F)c1NS(=O)(=O)C1(C[C@H](O)CO)CC1 [listing 2 of 2 here], the “weight change in DVS” value [1] was “negligible weight change”.
In the case of O=S(=O)(Nc1ccc(F)c(F)c1Nc1ccc(-c2ccccc2)cc1F)C1CC1 [Example 0497692], the EC50 (MDA pERK) is reported as over 200 nM.
Molecule CC(=O)c1cccc(-c2ccc(Nc3c(NS(=O)(=O)C4CC4)ccc(F)c3F)c(F)c2)c1 [Example 0499266] has an EC50 (MDA pERK) of over 200 nM.
For CS(=O)(=O)Nc1ccc(-c2ccc(Nc3c(NS(=O)(=O)C4CC4)ccc(F)c3F)c(F)c2)cc1 [Example 0499271], the EC50 (MDA pERK) was over 200 nM.
With O=S(=O)(Nc1ccc(F)c(F)c1Nc1ccc(I)cc1F)c1ccc(-c2nsc(Cl)n2)s1 [Example 0530701] the EC50 (MDA pERK) was 100 to 200 nM.
Work on O=S(=O)(Nc1ccc(F)c(F)c1Nc1ccc(I)cc1F)C1CCNCC1 [Example 0561599] yielded an EC50 (MDA pERK) of 15 to 100 nM.
Molecule COC(=O)c1ccc(S(=O)(=O)Nc2ccc(F)c(F)c2Nc2ccc(I)cc2F)n1C [Example 0561608] has an EC50 (MDA pERK) of 15 to 100 nM.
COC(=O)c1sccc1S(=O)(=O)Nc1ccc(F)c(F)c1Nc1ccc(I)cc1F [Example 0620926] gave an EC50 (MDA pERK) of over 200 nM.
O=S(=O)(Nc1ccc(F)c(F)c1Nc1ccc(I)cc1F)c1ccsc1 [Example 0620927] showed an EC50 (MDA pERK) of 15 to 100 nM.
CNCCS(=O)(=O)Nc1ccc(F)c(F)c1Nc1ccc(I)cc1F [Example 0621002] showed an EC50 (MDA pERK) of 15 to 100 nM.
CN(C)CCNCCS(=O)(=O)Nc1ccc(F)c(F)c1Nc1ccc(I)cc1F [Example 0621016] gave an EC50 (MDA pERK) of 15 to 100 nM.
Molecule Cn1cc(S(=O)(=O)Nc2ccc(F)c(F)c2Nc2ccc(I)cc2F)c(C(F)(F)F)n1 [Example 0621026] has an EC50 (MDA pERK) of 100 to 200 nM.
CCN(C)CCS(=O)(=O)Nc1ccc(F)c(F)c1Nc1ccc(I)cc1F [Example 0621029] showed an EC50 (MDA pERK) of 100 to 200 nM.
In the case of CC(=O)O[C@H]1C(=O)[C@@]2(C)[C@H]([C@H](OC(=O)c3ccccc3)[C@]3(O)C[C@H](OC(=O)[C@H](O)[C@@H](NC(=O)c4ccccc4)c4ccccc4)C(C)=C1C3(C)C)[C@]1(OC(C)=O)CO[C@@H]1C[C@@H]2O [paclitaxel, reference compound], the “Median TTE” value ([2]; Group 2, 30 mg/kg iv qod×5) is reported as 28.8 days, the TGD ([2]; Group 2, 30 mg/kg iv qod×5) is reported as 26% and the tumor regressions ([2]; Group 2, 30 mg/kg iv qod×5) is reported as “No tumor regressions”. For the same molecule, the “% TGD” value [2, 5] was 26%, the “Median TTE” value [2, 5] was 28.8 days and the “T − C” value [2, 5] was 6.0 days. The “Regressions CR” value [2, 6] was 0, the “Regressions PR” value [2, 6] was 0 and the “Regressions TFS” value [2, 6] was 0. The PR responses ([3]; Group 2, 30 mg/kg i.v. qod×5) was “Five”, the MTV ([3]; Group 2, 30 mg/kg i.v. qod×5, Day 74) was 143 mm^3 and the “% TGD” value [3, 7] was 46%. The “MTV (n) Day 74” value [3, 7] was 0 (3), the “Median TTE” value [3, 7] was 60.0 days and the “No of CR” value [3, 7] was 0. For the same molecule, the “No of NTR (non-treatment-related deaths)” value [3, 7] was 2, the “No of PR” value [3, 7] was 1 and the “No of TFS” value [3, 7] was 0. The “No of TR (treatment-related deaths)” value [3, 7] was 2, the “SS (statistical significance, logrank vs Group 1)” value [3, 7] was “ns” and the “T − C” value [3, 7] was 19.0 days. For the same molecule, the “Day 15 Tumor Volume” value (Colo205 tumor cells) was 113 ± 9.6 mm^3 and the “% TGI” value (Colo205 tumor cells; Day 15) was 104* %.
With enbrel the “animals without swelling in the tail (polyarthritis scoring)” value [4] was 3 of 6 and the “protection from front paw swelling (polyarthritis scoring)” value [4] was “no animals were protected”.
